Measurements as given in patent publication US20180147183A1, “USE OF R-OXIRACETAM IN PHARMACEUTICAL FIELD” (Chongqing Runze Pharmaceutical Co., Ltd., priority 2015, published 2018).
Marks after values point to notes of the source that are not given here.

How the values were obtained:
[1] = system: Pentetrazol (PTZ) ignited rat epilepsy model; assay: Pentetrazol (PTZ)-ignited rat epilepsy model; type: in vivo, SD rats; details: for mortality rate / Numbers of deaths (Number): 10 days
Protocol: Rats were injected intraperitoneally with PTZ at a dose of 35 mg/kg (7 mg/ml, 0.5 ml/100 g body weight) for sub-convulsions three times weekly. The animals are weighed before each ip, and observed for behavioral changes after ip. within 1-2 h. Behavioral scoring was carried out according to the revised Racine score. Three consecutive occurrences of seizures of stage IV and above indicate successful ignition.
The animals successfully ignited were chosen to be grouped. The animals were randomly divided into 4 groups, 8-10/group. […] 3 times of clinical dose were chosen, that is, 500 mg/kg. […] The dosage is 1 ml/100 g, continuous intragastrical administration of 10 days. Specific dose settings are as follows:
PTZ 35 mg/kg. The animals are observed for behavioral changes within 2 h. Behavioral scoring was carried out according to the revised Racine score, continuous administration for 10 days, grading standards as mentioned above.
The seizures were recorded daily ip PTZ within 2 h. The seizure levels, latencies, mortality were recorded, and compared with the model control group.

[2] = system: lithium chloride-pilocarpine epilepsy model rat; assay: Lithium chloride-pilocarpine rat epilepsy model, prophylactic administration; type: in vivo, SD rats; details: 120 mg/kg for 7 days before modeling, 10 rats
Excerpt: Stages: epileptic seizures evaluation are categorized by Racine Stages
Stage 0: no signs of any seizure;
Stage I: staring, head and face slightly trembling;
Stage II: head nodding or wet dog-like shaking;
Stage III: forelimb limit convulsions;
Stage IV: full-body ankylosing convulsions with a standing hind limb;
Stage V: full-body ankylosing clonic seizures with standing with fell;
Partial epilepsy seizure occurs when any one of Stage Ito Stage III appears;
Generalized epilepsy seizure occurs when Stage IV or Stage V appears;
Status epilepticus (SE) occurs when Stage IV or Stage V lasts 30 minutes.
The rat epilepsy models were treated with lithium chloride-pilocarpine and used levetiracetam as positive control. The duration of acute seizures of lithium chloride-pilocarpine epilepsy model rat was selected as the observation time, and prophylactic administration was used.
Animals were randomly divided into 4 groups, 10/group. Levetiracetam was selected as a positive control, 1.5 times of clinical dose were chosen, that is, 150 mg/kg. The clinical dose of an adult is 800 mg/times, twice daily, that is, 1600 mg/60 kg, 26.7 mg/kg. The dose of a rat is converted to 160 mg/kg according to body surface area. R-oxiracetam and levorotatory oxiracetam were selected half of the dose, that is, 80 mg/kg, and 1.5 times is 120 mg/kg. The dose was 1 ml/100 g, and the rats were treated with continuous administration for 7 days. As levetiracetam administration of 1.3 h (80 min), the plasma concentration peak, so we choose the last 80 minutes after the last administration of modeling. As administration of levetiracetam for 1.3 h (80 min), the plasma concentration peak was reached, so each group was selected after the last 80 minutes after the start of modeling.
Modeling method: After several previous test, the following modeling method was chosen: Animal ip. Lithium chloride 3 mmol/kg (1.5 ml/L) 127 mg/kg (12.7 mg/ml, 1 ml/100 g body weight), 24 h, 37.5 mg/kg pilocarpine three times ip. mg/kg (2.5 mg/ml, 0.5 ml/100 g body weight) at intervals of 10 minutes. […]

NC(=O)CN1C[C@H](O)CC1=O [R-oxiracetam, (R)-4-hydroxy-2-oxo-1-pyrrolidineacetamide]
Seizure latency (X ± SD) ([1]; High-dose 360 mg/kg daily, D1): 3.83 ± 1.17 m | occurrence rates of stage IV or above seizures ([1]; High-dose 360 mg/kg daily, D1): 4/6 (66.7) % | Seizure latency (X ± SD) ([1]; High-dose 360 mg/kg daily, D2): 5.00 ± 0.89 m | occurrence rates of stage IV or above seizures ([1]; High-dose 360 mg/kg daily, D2): 3/6(50.0) % | Seizure latency (X ± SD) ([1]; High-dose 360 mg/kg daily, D3): 6.17 ± 1.17 m | occurrence rates of stage IV or above seizures ([1]; High-dose 360 mg/kg daily, D3): 3/6 (50.0) % | Seizure latency (X ± SD) ([1]; High-dose 360 mg/kg daily, D4): 6.50 ± 1.05 m | occurrence rates of stage IV or above seizures ([1]; High-dose 360 mg/kg daily, D4): 2/6 (33.3) % | Seizure latency (X ± SD) ([1]; High-dose 360 mg/kg daily, D5): 7.17 ± 0.75 m | occurrence rates of stage IV or above seizures ([1]; High-dose 360 mg/kg daily, D5): 1/6 (16.7) % | Seizure latency (X ± SD) ([1]; High-dose 360 mg/kg daily, D6): 7.83 ± 0.75 m | occurrence rates of stage IV or above seizures ([1]; High-dose 360 mg/kg daily, D6): 1/6 (16.7) % | Seizure latency (X ± SD) ([1]; High-dose 360 mg/kg daily, D7): 8.33 ± 1.03 m | occurrence rates of stage IV or above seizures ([1]; High-dose 360 mg/kg daily, D7): 0/6** (0) % | Seizure latency (X ± SD) ([1]; High-dose 360 mg/kg daily, D8): 8.83 ± 0.98 m | occurrence rates of stage IV or above seizures ([1]; High-dose 360 mg/kg daily, D8): 0/6** (0) % | Seizure latency (X ± SD) ([1]; High-dose 360 mg/kg daily, D9): 8.83 ± 0.75 m | occurrence rates of stage IV or above seizures ([1]; High-dose 360 mg/kg daily, D9): 0/6* (0) % | Seizure latency (X ± SD) ([1]; High-dose 360 mg/kg daily, D10): 9.83 ± 0.75 m | occurrence rates of stage IV or above seizures ([1]; High-dose 360 mg/kg daily, D10): 0/6* (0) % | mortality rate ([1]; High-dose 360 mg/kg intragastric): 0% | Numbers of deaths (Number) ([1]; High-dose 360 mg/kg intragastric, 6 animals, 360 mg/kg): No animal died | Numbers of deaths (Number) ([1]; High-dose 360 mg/kg intragastric, 6 animals, listed as R-Oxiracetam, 360 mg/kg): 0 | Seizure latency (X ± SD) ([1]; Low-dose 120 mg/kg daily, D1): 3.57 ± 1.51 m | occurrence rates of stage IV or above seizures ([1]; Low-dose 120 mg/kg daily, D1): 4/7 (57.1) % | Seizure latency (X ± SD) ([1]; Low-dose 120 mg/kg daily, D2): 4.57 ± 1.72 m | occurrence rates of stage IV or above seizures ([1]; Low-dose 120 mg/kg daily, D2): 4/6(66.7) % | Seizure latency (X ± SD) ([1]; Low-dose 120 mg/kg daily, D3): 5.00 ± 1.15 m | occurrence rates of stage IV or above seizures ([1]; Low-dose 120 mg/kg daily, D3): 3/6 (50.0) % | Seizure latency (X ± SD) ([1]; Low-dose 120 mg/kg daily, D4): 4.86 ± 1.07 m | occurrence rates of stage IV or above seizures ([1]; Low-dose 120 mg/kg daily, D4): 2/6 (33.3) % | Seizure latency (X ± SD) ([1]; Low-dose 120 mg/kg daily, D5): 5.43 ± 0.98 m | occurrence rates of stage IV or above seizures ([1]; Low-dose 120 mg/kg daily, D5): 2/6 (33.3) % | Seizure latency (X ± SD) ([1]; Low-dose 120 mg/kg daily, D6): 6.29 ± 1.11 m | occurrence rates of stage IV or above seizures ([1]; Low-dose 120 mg/kg daily, D6): 2/6 (33.3) % | Seizure latency (X ± SD) ([1]; Low-dose 120 mg/kg daily, D7): 6.86 ± 1.07 m | occurrence rates of stage IV or above seizures ([1]; Low-dose 120 mg/kg daily, D7): 1/6* (16.7) % | Seizure latency (X ± SD) ([1]; Low-dose 120 mg/kg daily, D8): 7.14 ± 1.07 m | occurrence rates of stage IV or above seizures ([1]; Low-dose 120 mg/kg daily, D8): 1/6* (16.7) % | Seizure latency (X ± SD) ([1]; Low-dose 120 mg/kg daily, D9): 7.71 ± 0.76 m | occurrence rates of stage IV or above seizures ([1]; Low-dose 120 mg/kg daily, D9): 0/6* (0) % | Seizure latency (X ± SD) ([1]; Low-dose 120 mg/kg daily, D10): 8.43 ± 0.98 m | occurrence rates of stage IV or above seizures ([1]; Low-dose 120 mg/kg daily, D10): 0/6* (0) % | mortality rate ([1]; Low-dose 120 mg/kg intragastric): 14.3% | Numbers of deaths (Number) ([1]; Low-dose 120 mg/kg intragastric, 7 animals, 120 mg/kg): No animal died | Numbers of deaths (Number) ([1]; Low-dose 120 mg/kg intragastric, 7 animals, listed as R-Oxiracetam, 120 mg/kg): 1 | Latency Stage I [2]: 19.6 ± 4.4 min | Latency Stage II [2]: 34.7 ± 15.2 min | Latency Stage III [2]: 40.2 ± 12.1 min | Latency Stage IV [2]: 35.0 ± 2.8 min | Latency Stage V [2]: 38.0 ± 2.8 min | Number of Deaths [2]: 1 | Number of SE Animals [2]: 2 | Number of seizures Stage I [2]: 2.3 ± 1.2 times | Number of seizures Stage II [2]: 6.8 ± 3.7 times | Number of seizures Stage III [2]: 6.4 ± 3.6 times | Occurrence rate Stage I [2]: 10% | Occurrence rate Stage II [2]: 10% | Occurrence rate Stage III [2]: 5% | Occurrence rate Stage IV [2]: 2* % | Occurrence rate Stage V [2]: 2% | duration Stage IV [2]: 10.0 ± 1.4 min | duration Stage V [2]: 26.5 ± 0.7 min | number of animals having stage IV ([2]; P<0.05 vs model control): 20% | mortality rate ([2]; within 1 to 7 days after modeling): 10%
